Results on six compounds are retold here after ChEMBL document CHEMBL1129279, “Structure-antigastrin activity relationships of new spiroglumide amido acid derivatives” (J Med Chem, 1996).

Each structure is given as a SMILES string.

Assay [1] concerns the target T1, Cholecystokinin receptor type A (Rattus norvegicus, UniProt P30551).
T1 sequence (P30551 whole entry): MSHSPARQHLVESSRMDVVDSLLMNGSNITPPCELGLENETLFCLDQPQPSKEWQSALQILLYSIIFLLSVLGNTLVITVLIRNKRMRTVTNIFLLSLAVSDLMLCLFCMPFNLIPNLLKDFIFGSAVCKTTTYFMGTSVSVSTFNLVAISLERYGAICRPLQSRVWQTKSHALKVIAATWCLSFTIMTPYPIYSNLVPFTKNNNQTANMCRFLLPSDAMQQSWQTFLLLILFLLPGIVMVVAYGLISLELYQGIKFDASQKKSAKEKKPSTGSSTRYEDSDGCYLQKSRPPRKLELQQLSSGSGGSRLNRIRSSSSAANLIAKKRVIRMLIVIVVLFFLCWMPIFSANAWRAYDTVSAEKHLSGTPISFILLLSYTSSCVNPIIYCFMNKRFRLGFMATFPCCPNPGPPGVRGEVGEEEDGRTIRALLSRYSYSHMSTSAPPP
Kind of assay: Inhibition of [125I]CCK-8 binding to Cholecystokinin type A receptor in rat pancreas.

The target of assay [2] is Gastrin/cholecystokinin type B receptor (Cavia porcellus). Kind of assay: Inhibition of binding of [3H]N-Me-N-Leu-CCK-8 to cholecystokinin type B receptor in guinea pig brain cortex.
Assay [3] deals with Cholecystokinin receptor (Homo sapiens) (UniProt P32239+P32238). Briefly: Concentration required to inhibit CCK-A receptor/ Concentration required to inhibit CCK-B receptor. Format: protein assay.
Sequence of Cholecystokinin receptor (Homo sapiens) (P32238 whole entry, looked up): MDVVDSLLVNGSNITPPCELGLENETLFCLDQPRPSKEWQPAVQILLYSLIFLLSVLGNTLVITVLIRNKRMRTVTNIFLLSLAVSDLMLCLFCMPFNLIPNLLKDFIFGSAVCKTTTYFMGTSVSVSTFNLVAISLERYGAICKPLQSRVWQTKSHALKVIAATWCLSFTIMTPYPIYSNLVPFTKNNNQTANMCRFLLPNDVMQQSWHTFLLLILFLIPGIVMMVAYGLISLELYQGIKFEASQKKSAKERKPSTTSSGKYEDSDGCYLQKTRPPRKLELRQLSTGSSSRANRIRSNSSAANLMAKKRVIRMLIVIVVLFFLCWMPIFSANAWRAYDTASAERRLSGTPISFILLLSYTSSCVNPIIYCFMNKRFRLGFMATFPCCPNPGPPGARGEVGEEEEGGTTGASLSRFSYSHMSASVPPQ
Sequence of Cholecystokinin receptor (Homo sapiens) (P32239 whole entry, looked up): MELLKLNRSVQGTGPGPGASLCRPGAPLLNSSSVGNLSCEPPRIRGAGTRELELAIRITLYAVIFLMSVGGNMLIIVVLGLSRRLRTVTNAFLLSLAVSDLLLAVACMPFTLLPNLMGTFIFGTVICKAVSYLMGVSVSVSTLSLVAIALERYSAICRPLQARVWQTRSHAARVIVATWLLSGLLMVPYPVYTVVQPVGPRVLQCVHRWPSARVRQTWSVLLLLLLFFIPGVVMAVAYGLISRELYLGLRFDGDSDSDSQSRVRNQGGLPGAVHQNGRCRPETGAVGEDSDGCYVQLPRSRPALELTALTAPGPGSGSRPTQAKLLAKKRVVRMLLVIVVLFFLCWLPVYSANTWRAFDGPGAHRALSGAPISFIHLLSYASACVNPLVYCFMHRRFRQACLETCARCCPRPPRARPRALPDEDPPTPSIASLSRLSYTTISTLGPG

One may read the IC50 as the point on the concentration scale where inhibition reaches its midpoint. Read a low IC50 as greater potency in that assay. For the compound `CN(C(=O)CCC(NC(=O)c1cc(Cl)cc(Cl)c1)C(=O)N1CCC2(CCCC2)CC1)[C@H](Cc1c[nH]c2ccccc12)C(=O)O` (stereo partly drawn), in assay [1], the IC50 turned out to be 3.4 µM.
Take `O=C(O)CC[C@@H](NC(=O)c1cc(Cl)cc(Cl)c1)C(=O)N1CCC2(CCCC2)CC1` [SPIROGLUMIDE]: in assay [2], the IC50 was found to be 1400 nM. Also, the Ratio in assay [3] came out at 9.6.
As to `O=C(O)CC[C@@H](NC(=O)CCC(NC(=O)c1cc(Cl)cc(Cl)c1)C(=O)N1CCC2(CCCC2)CC1)C(=O)NC1[C@H]2C[C@@H]3C[C@@H](C[C@H]1C3)C2` (stereo partly drawn), the IC50 entry in the assay listed under Oryctolagus cuniculus was “Not Active”.
Still for that read-out and setting: under `O=C(O)CC[C@@H](NC(=O)CCC(NC(=O)c1cc(Cl)cc(Cl)c1)C(=O)N1CCC2(CCCC2)CC1)C(=O)NCCC12C[C@H]3C[C@@H](C1)C[C@@H](C2)C3` (stereo partly drawn) stands “Not Active”; under `O=C(CCC(NC(=O)c1cc(Cl)cc(Cl)c1)C(=O)N1CCC2(CCCC2)CC1)N[C@@H](Cc1ccccc1)C(=O)O` (stereo partly drawn), “Not Active”.
In assay [1], `O=C(O)CC[C@H](NC(=O)CCC(NC(=O)c1cc(Cl)cc(Cl)c1)C(=O)N1CCC2(CCCC2)CC1)C(=O)Nc1cccc2ccccc12` (stereo partly drawn) came in with an IC50 of 7.38 µM. In addition, in assay [3], the Ratio came to 369.
